We go through two compounds from ChEMBL document CHEMBL1799965, “Synthesis of useful fragments in drug discovery: 2-Amino-5-tert-butylpyridine and its oxidised analogues” (Bioorg Med Chem Lett, 2011).

Values after ≈ are worked out from the molar mass of the structure shown. Bounds are passed on as bounds.

The nature of data set [1]: Solubility of the compound in buffer at pH 6.8. Format: physicochemical.
In data set [2] the target is Albumin (Homo sapiens, UniProt P02768). Put plainly: Binding affinity to human serum albumin by HPLC method.
Chain of Albumin (P02768 whole entry): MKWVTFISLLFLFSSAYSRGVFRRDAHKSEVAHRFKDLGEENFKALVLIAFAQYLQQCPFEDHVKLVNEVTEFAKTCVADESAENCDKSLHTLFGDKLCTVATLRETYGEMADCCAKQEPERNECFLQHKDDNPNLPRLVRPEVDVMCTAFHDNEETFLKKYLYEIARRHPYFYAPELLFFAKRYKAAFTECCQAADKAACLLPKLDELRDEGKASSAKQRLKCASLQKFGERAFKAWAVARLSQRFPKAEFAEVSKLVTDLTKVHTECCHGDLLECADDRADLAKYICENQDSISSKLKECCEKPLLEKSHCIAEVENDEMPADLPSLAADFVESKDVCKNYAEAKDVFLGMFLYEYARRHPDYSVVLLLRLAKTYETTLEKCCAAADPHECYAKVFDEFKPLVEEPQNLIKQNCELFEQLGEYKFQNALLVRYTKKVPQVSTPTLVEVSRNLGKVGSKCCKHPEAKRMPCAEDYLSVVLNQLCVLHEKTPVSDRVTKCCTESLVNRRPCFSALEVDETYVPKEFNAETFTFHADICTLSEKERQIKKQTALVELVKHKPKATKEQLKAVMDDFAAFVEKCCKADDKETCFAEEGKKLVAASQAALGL
Data set [3] is described as follows: Solubility of the compound in simulated fasted intestinal fluid. Format: physicochemical. Particulars: simulated gi fluid.
Data set [4] can be described thus: Membrane affinity to immobilized artificial membrane by HPLC method. Format: physicochemical.
Data set [5] is described as follows: Lipophilicity, Log D of the compound by HPLC method. Format: physicochemical.

`CC(C)(C)c1ccc(N)cc1`: the solubility in data set [1] and in data set [3] was < 5 µM throughout. The compound further gave an Activity in data set [2] of 78.5%. Besides, the CHI in data set [4] stood at 35.5. Also, the pH-dependent lipophilicity (logD) (in general, the decadic logarithm of the distribution of all forms, ionised or not, between an organic phase and buffer at a given pH) in data set [5] turned out to be 2.83.

For `CC(C)(C)c1ccc(N)nc1`, the solubility – broadly, the concentration that dissolves in the medium under given conditions – in data set [1] was 59 µM (≈ 8.86 µg/mL); in data set [3] it was 72 µM (≈ 10.8 µg/mL). The same compound displayed an Activity in data set [2] of 38.9%. This compound returned a CHI in data set [4] of 33. In addition, in data set [5], the logD is 1.53.
